Laboratory results from patent US10519177B2, “Heterocyclic compounds and uses thereof” (Plexxikon Inc., priority 2013, dated 2019).

Tests used:
[1] = tested on: bromodomain; assay: at least one of the bromodomain cell assays of Example 57; format: cell-based; conditions: at least one of the bromodomain cell assays described in Example 57; read-out: IC50 in at least one of the bromodomain cell assays
[2] = tested on: MV-4-11 cells; assay: Oncology cell growth assay MV-4-11 (CellTiter Glo); format: cell-based; conditions: Homo sapiens, MV4-11, 72 h; read-out: Cell activity (IC50 μM) MV-4-11 3d-Growth
Procedure, shortened: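 Growth read by CellTiter Glo luminescence after 72 h compound treatment of MLL-AF4-bearing MV-4-11 cells (3000/well). Titration: 8 points, 1:3 steps, maximum 10 μM, 0.2% DMSO final. Data normalized to DMSO wells, four-parameter fit gives pIC50.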

[3] = target: BRD4-BD1 (44-164) (Homo sapiens (Human), UniProt O60885); assay: Alphascreen binding assay BRD4-BD1; conditions: BRD4(1) H4; read-out: Biochemical activity (IC50 μM) BRD4(1) H4
Procedure, shortened: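 AlphaScreen signal (nickel acceptor, streptavidin donor beads, 7.5 µg/ml each, read 30 min after addition) reports displacement of biotin-H4 K5/K8/K12/K16-acetyl peptide from His-BRD4 BD1 (44-164) or tandem BD12 (1-477).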

[4] = target: BRD4-BD12 (1-477) (Homo sapiens (Human), UniProt O60885); assay: Alphascreen binding assay BRD4-BD12; conditions: BRD4(1 2) H4; read-out: Biochemical activity (IC50 μM) BRD4(1 2) H4
Procedure, shortened: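 In this competition format, compounds displace a biotinylated tetra-acetyl H4 peptide from E. coli-expressed human BRD4 bromodomain constructs captured on nickel chelate beads. The reaction runs at pH 7.5 with 2 mM DTT and detergent for 1 h at room temperature before a 30 min bead step.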

SMILES	IC50 [1] [µM]	IC50 [2] [µM]	IC50 [3] [µM]	IC50 [4] [µM]
COc1ncc(-c2cn(C(C)c3ccccc3)c3cc(-c4c(C)noc4C)cnc23)cn1 (stereo not drawn) [P-0275, 4-[3-(2-methoxypyrimidin-5-yl)-1-(1-phenylethyl)pyrrolo[3,2-b]pyridin-6-yl]-3,5-dimethyl-isoxazole]	< 10	< 1	< 1	< 1
Cc1noc(C)c1-c1cnc2c(-c3c(C)nn(C)c3C)cn(C(C)c3ccccc3)c2c1 (stereo not drawn) [P-0300, 3,5-dimethyl-4-[1-(1-phenylethyl)-3-(1,3,5-trimethylpyrazol-4-yl)pyrrolo[3,2-b]pyridin-6-yl]isoxazole]	< 10	< 1	< 1	< 1
Cc1noc(C)c1-c1cnc2c(I)cn(CC3CC(F)(F)C3)c2c1 [P-0303, 4-[1-[(3,3-difluorocyclobutyl)methyl]-3-iodo-pyrrolo[3,2-b]pyridin-6-yl]-3,5-dimethyl-isoxazole]	< 10	< 1	< 1	< 1
Cc1noc(C)c1-c1cnc2c(-c3ccc(C(=O)O)cc3)cn(C(C)c3ccccc3)c2c1 (stereo not drawn) [P-0273, 4-[6-(3,5-dimethylisoxazol-4-yl)-1-(1-phenylethyl)pyrrolo[3,2-b]pyridin-3-yl]benzoic acid]	< 10	< 1	< 1	< 1
Cc1noc(C)c1-c1cnc2c(-c3ccc(O)nc3)cn(C(C)c3ccccc3)c2c1 (stereo not drawn) [P-0270, 5-[6-(3,5-dimethylisoxazol-4-yl)-1-(1-phenylethyl)pyrrolo[3,2-b]pyridin-3-yl]pyridin-2-ol]	< 10	< 1	< 1	< 1
Cc1noc(C)c1-c1cnc2c(-c3cnn(C4COC4)c3)cn(CC3CCC(F)(F)CC3)c2c1 [P-0295, 4-[1-[(4,4-difluorocyclohexyl)methyl]-3-[1-(oxetan-3-yl)pyrazol-4-yl]pyrrolo[3,2-b]pyridin-6-yl]-3,5-dimethyl-isoxazole]	< 10	< 1	< 1	< 1
Cc1noc(C)c1-c1cnc2c(-c3cnn(C(F)F)c3)cn(Cc3ccccc3)c2c1 [P-0326, 4-[1-benzyl-3-[1-(difluoromethyl)pyrazol-4-yl]pyrrolo[3,2-b]pyridin-6-yl]-3,5-dimethyl-isoxazole]	< 10	< 1	< 1	< 1
COc1ccc(-c2cn(C(C)c3ccccc3)c3cc(-c4c(C)noc4C)cnc23)cn1 (stereo not drawn) [P-0271, 4-[3-(6-methoxy-3-pyridyl)-1-(1-phenylethyl)pyrrolo[3,2-b]pyridin-6-yl]-3,5-dimethyl-isoxazole]	< 10	< 1	< 1	< 1
Cc1noc(C)c1-c1cnc2c(I)cn(C(CC#N)C3CC3)c2c1 (stereo not drawn) [P-0309, 3-cyclopropyl-3-[6-(3,5-dimethylisoxazol-4-yl)-3-iodo-pyrrolo[3,2-b]pyridin-1-yl]propanenitrile]	< 10	< 1	< 1	< 1
Cc1noc(C)c1-c1cnc2c(Cl)cn(C(CC#N)C3CC3)c2c1 (stereo not drawn) [P-0307, 3-[3-chloro-6-(3,5-dimethylisoxazol-4-yl)pyrrolo[3,2-b]pyridin-1-yl]-3-cyclopropyl-propanenitrile]	< 10	1 to 10	< 1	< 1
Cc1noc(C)c1-c1cnc2c(-c3cnn(CC(F)(F)F)c3)cn(Cc3ccccc3)c2c1 [P-0317, 4-[1-benzyl-3-[1-(2,2,2-trifluoroethyl)pyrazol-4-yl]pyrrolo[3,2-b]pyridin-6-yl]-3,5-dimethyl-isoxazole]	< 10	< 1	< 1	< 1
Cc1noc(C)c1-c1cnc2c(-c3cnc(N)cn3)cn(C(C)c3ccccc3)c2c1 (stereo not drawn) [P-0279, 5-[6-(3,5-dimethylisoxazol-4-yl)-1-(1-phenylethyl)pyrrolo[3,2-b]pyridin-3-yl]pyrazin-2-amine]	< 10	< 1	< 1	< 1
Cc1noc(C)c1-c1cnc2c(-c3cnn(CC(F)(F)F)c3)cn(C(CC#N)C3CCCC3)c2c1 (stereo not drawn) [P-0266, 3-cyclopentyl-3-[6-(3,5-dimethylisoxazol-4-yl)-3-[1-(2,2,2-trifluoroethyl)pyrazol-4-yl]pyrrolo[3,2-b]pyridin-1-vl]propanenitrile]	< 10	< 1	< 1	< 1
Cc1noc(N)c1-c1cnc2ccn(CC3CCC(F)(F)CC3)c2c1 [P-0328, 4-[1-[(4,4-difluorocyclohexyl)methyl]pyrrolo[3,2-b]pyridin-6-yl]-3-methyl-isoxazol-5-amine]	< 10	1 to 10	< 1	< 1
Cc1noc(C)c1-c1cnc2c(-c3cnn(CC(F)(F)F)c3)cn(CC3CC(F)(F)C3)c2c1 [P-0305, 4-[1-[(3,3-difluorocyclobutyl)methyl]-3-[1-(2,2,2-trifluoroethyl)pyrazol-4-yl]pyrrolo[3,2-b]pyridin-6-yl]-3,5-dimethyl-isoxazole]	< 10	< 1	< 1	< 1
Cc1nnn(C)c1-c1cnc2ccn(CC3CCC(F)(F)CC3)c2c1 [P-0291, l-[(4,4-difluorocyclohexyl)methyl]-6-(3,5-dimethyltriazol-4-yl)pyrrolo[3,2-b]pyridine]	< 10	1 to 10	< 1	10 to 200
Cc1noc(C)c1-c1cnc2c(I)cn(Cc3ccccn3)c2c1 [P-0333, 4-[3-iodo-1-(2-pyridylmethyl)pyrrolo[3,2-b]pyridin-6-yl]-3,5-dimethyl-isoxazole]	< 10	< 1	< 1	< 1
Cc1noc(C)c1-c1cnc2c(-c3cnn(CC(F)(F)F)c3)cn(CC3(F)CCC(F)(F)CC3)c2c1 [P-0321, 3,5-dimethyl-4-(1-[(1,4,4-trifluorocyclohexyl)methyl]-3-[1-(2,2,2-trifluoroethyl)pyrazol-4-yl]pyrrolo[3,2-b]pyridin-6-yl]isoxazole]	< 10	< 1	< 1	1 to 10
Cc1noc(C)c1-c1cnc2ccn(CC3CCC(F)(F)CC3)c2c1 [P-0282, 4-[1-[(4,4-difluorocyclohexyl)methyl]pyrrolo[3,2-b]pyridin-6-yl]-3,5-dimethyl-isoxazole]	< 10	< 1	< 1	1 to 10
Cc1oncc1-c1cnc2ccn(CC3CCC(F)(F)CC3)c2c1 [P-0283, 4-[1-[(4,4-difluorocyclohexyl)methyl]pyrrolo[3,2-b]pyridin-6-yl]-5-methyl-isoxazole]	< 10	1 to 10	1 to 10	1 to 10
Cc1noc(C)c1-c1cnc2c(-c3ccc(Cl)cc3)cn(C(C)c3ccccc3)c2c1 (stereo not drawn) [P-0269, 4-[3-(4-chlorophenyl)-1-(1-phenylethyl)pyrrolo[3,2-b]pyridin-6-yl]-3,5-dimethyl-isoxazole]	< 10	1 to 10	< 1	< 1
Cc1noc(C)c1-c1cnc2c(Cl)cn(C(CC#N)C3CCCC3)c2c1 (stereo not drawn) [P-0290, 3-[3-chloro-6-(3,5-dimethylisoxazol-4-yl)pyrrolo[3,2-b]pyridin-1-yl]-3-cyclopentyl-propanenitrile]	< 10	< 1	< 1	< 1
Cc1ccc(-c2cnc3ccn(CC4CCC(F)(F)CC4)c3c2)cn1 [P-0313, 1-[(4,4-difluorocyclohexyl)methyl]-6-(6-methyl-3-pyridyl)pyrrolo[3,2-b]pyridine]	< 10	10 to 200	10 to 200	< 1
Cc1noc(C)c1-c1cnc2c(-c3cnco3)cn(C(C)c3ccccc3)c2c1 (stereo not drawn) [P-0301, 3,5-dimethyl-4-[3-oxazol-5-yl-1-(1-phenylethyl)pyrrolo[3,2-b]pyridin-6-yl]isoxazole]	< 10	< 1	< 1	< 1
Cc1noc(C)c1-c1cnc2c(-c3cccnc3)cn(C(C)c3ccccc3)c2c1 (stereo not drawn) [P-0267]	< 10	< 1	< 1	< 1
Cc1noc(C)c1-c1cnc2c(-c3cnn(CC(C)C)c3)cn(CC3CCC(F)(F)CC3)c2c1 [P-0297, 4-[1-[(4,4-difluorocyclohexyl)methyl]-3-(1-isobutylpyrazol-4-yl)pyrrolo[3,2-b]pyridin-6-yl]-3,5-dimethyl-isoxazole]	< 10	< 1	< 1	< 1
Cc1noc(C)c1-c1cnc2c(-c3ccnc(C4CC4)c3)cn(C(C)c3ccccc3)c2c1 (stereo not drawn) [P-0268, 4-[3-(2-cyclopropyl-4-pyridyl)-1-(1-phenylethyl)pyrrolo[3,2-b]pyridin-6-yl]-3,5-dimethyl-isoxazole]	< 10	< 1	< 1	< 1
